Laboratory results published in US11596639B2, “Substituted indole Mcl-1 inhibitors” (Vanderbilt University, priority 2016, dated 2023).
Like-named read-outs stand apart in the source and are kept apart here.

Tests used:
[1] = system: H929 human cancer cell lines; test: Cellular viability / proliferation (Cell TiterGlo, 72 h); assay type: cell-based
In short: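 Plating is at 1,000 cells/well in 10% FBS medium; after 24 h, compound is added as a 2-fold series starting at 50 μM with under 1% DMSO.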

[2] = biological target: Mcl-1 (Homo sapiens (Human), UniProt Q07820); test: Fluorescence polarization anisotropy (FPA) competition assay, FITC-Bak or FITC-Bim BH3 peptide; assay type: binding; details: read-out: Ki for Inhibition of Mcl-1 by FPA assay
[3] = Homo sapiens, NCI-H929, 72 h, read-out: GI50 on cellular proliferation of H929 human cancer cell lines, H929 cells, 72 h, Cell TiterGlo, 10% FBS
[4] = H929 cells, 72 h, Cell TiterGlo, 10% FBS, read-out: GI50 on cellular proliferation of H929 human cancer cell lines

Sequence of Mcl-1 (Q07820 172-327): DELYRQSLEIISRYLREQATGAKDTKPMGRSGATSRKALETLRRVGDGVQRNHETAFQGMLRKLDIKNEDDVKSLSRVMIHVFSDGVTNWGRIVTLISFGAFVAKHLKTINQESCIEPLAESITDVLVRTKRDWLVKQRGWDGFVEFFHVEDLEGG

Structure (SMILES): Cc1cc(N2C[C@@H](C)n3c(c(CCCOc4cc(C)c(Cl)c(C)c4)c4ccc(Cl)c(-c5c(C)nn(CC6CCOCC6)c5C)c43)C2=O)c2c(c1)cc(C(=O)O)n2C [Example 452, (R)-7-(7-Chloro-10-(3-(4-chloro-3,5-dimethylphenoxy)propyl)-6-(3,5-dimethyl-1-((tetrahydro-2H-pyran-4-yl)methyl)-1H-pyrazol-4-yl) 4-methyl-1-oxo-3,4-dihydropyrazino[1,2-a]indol-2(1H)-yl)-1,5-dimethyl-1H-indole-2-carboxylic acid]
- GI50 [1, 3]: 380 nM
- Ki [2]: 2.2 nM

Structure (SMILES): CC(=O)c1ccc2c(c1)c(N1C[C@@H](C)n3c(c(CCCOc4cc(C)c(Cl)c(C)c4)c4ccc(Cl)c(-c5c(C)nn(C)c5C)c43)C1=O)cn2C [Example 260, (R)-2-(5-Acetyl-1-methyl-1H-indol-3-yl)-7-chloro-10-(3-(4-chloro-3,5-dimethylphenoxy)propyl)-4-methyl-6-(1,3,5-trimethyl-1H-pyrazol-4-yl)-3,4-dihydropyrazino[1,2-a]indol-1(2H)-one]
- GI50 [1, 3]: 550 nM
- Ki [2]: < 1 nM

Structure (SMILES): Cc1cc(OCCCc2c3n(c4c(-c5c(C)nn(C)c5C)c(Cl)ccc24)[C@H](C)CN(c2cccc4cc(C(=O)O)n(CC5(C)COC5)c24)C3=O)cc(C)c1Cl [Example 380, (R)-7-(7-chloro-10-(3-(4-chloro-3,5-dimethylphenoxy)propyl)-4-methyl-1-oxo-6-(1,3,5-trimethyl-1H-pyrazol-4-yl)-3,4-dihydropyrazino[1,2-a]indol-2(1H)-yl)-1-((3-methyloxetan-3-yl)methyl)-1H-indole-2-carboxylic acid]
- GI50 [1, 3]: 2500 nM
- Ki [2]: 7.9 nM

Structure (SMILES): Cc1cc(N2C[C@@H](C)n3c(c(CCCOc4cc(C)c(Cl)c(C)c4)c4ccc(Cl)c(-c5c(C)nn(C)c5C)c43)C2=O)c2c(c1)cc(C(=O)O)n2C [Example 201, (R)-7-(7-Chloro-10-(3-(4-chloro-3,5-dimethylphenoxy)propyl)-4-methyl-1-oxo-6-(1,3,5-trimethyl-1H-pyrazol-4-yl)-3,4-dihydropyrazino[1,2-a]indol-2(1H)-yl)-1,5-dimethyl-1H-indole-2-carboxylic acid]
- GI50 [1, 3]: < 200 nM
- Ki [2]: < 1 nM

Structure (SMILES): Cc1cc(OCCCc2c3n(c4c(-c5c(C)nn(C)c5C)c(Cl)ccc24)[C@H](C)CN(c2cccc4cc(C(N)=O)n(C)c24)C3=O)cc(C)c1Cl [Example 270, 7-[(4R)-7-chloro-10-[3-(4-chloro-3,5-dimethyl-phenoxy)propyl]-4-methyl-1-oxo-6-(1,3,5-trimethylpyrazol-4-yl)-3,4-dihydropyrazino[1,2-a]indol-2-yl]-1-methyl-indole-2-carboxamide]
- GI50 ([1]; read-out: GI50 on cellular proliferation of H929 human cancer cell lines, H929 cells, 72 h, Cell TiterGlo, 10% FBS): 310 nM
- Ki [2]: 1.1 nM

Structure (SMILES): Cc1cc(OCCCc2c3n(c4c(-c5c(C)nn(C)c5C)c(Cl)ccc24)CCCN(c2cc(C(=O)O)cc4c2cnn4C)C3=O)cc(C)c1Cl [Example 45, 4-[8-chloro-11-[3-(4-chloro-3,5-dimethyl-phenoxy)propyl]-1-oxo-7-(1,3,5-trimethylpyrazol-4-yl)-4,5-dihydro-3H-[1,4]diazepino[1,2-a]indol-2-yl]-1-methyl-indazole-6-carboxylic acid]
- GI50 [1, 3]: 3800 nM
- Ki [2]: 1.7 nM

Structure (SMILES): Cc1cc(OCCCc2c3n(c4c(-c5c(C)nn(C)c5C)c(Cl)ccc24)[C@H](C)CN(c2cc(C(=O)O)c4cnn(C(C)C)c4c2)C3=O)cc(C)c1Cl [Example 131, 6-[(4R)-7-chloro-10-[3-(4-chloro-3,5-dimethyl-phenoxy)propyl]-4-methyl-1-oxo-6-(1,3,5-trimethylpyrazol-4-yl)-3,4-dihydropyrazino[1,2-a]indol-2-yl]-1-isopropyl-indazole-4-carboxylic acid]
- GI50 [1, 3]: 1900 nM
- Ki [2]: < 1 nM

Structure (SMILES): COCCOc1cc(N2C[C@@H](C)n3c(c(CCCOc4cc(C)c(Cl)c(C)c4)c4ccc(Cl)c(-c5c(C)nn(C)c5C)c43)C2=O)c2cc(C(=O)O)n(C)c2c1 [Example 328, (M, R)-4-(7-Chloro-10-(3-(4-chloro-3,5-dimethylphenoxy)propyl)-4-methyl-1-oxo-6-(1,3,5-trimethyl-1H-pyrazol-4-yl)-3,4-dihydropyrazino[1,2-a]indol-2(1H)-yl)-6-(2-methoxyethoxy)-1-methyl-1H-indole-2-carboxylic acid]
- GI50 [1, 4]: 690 nM
- Ki [2]: < 1 nM

Structure (SMILES): Cc1cc(OCCCc2c3n(c4c(-c5c(C)n[nH]c5C)c(Cl)ccc24)CCCN(c2cc(C(=O)O)cc4c2ccn4C)C3=O)cc(C)c1Cl [Example 72, 4-(8-chloro-11-(3-(4-chloro-3,5-dimethylphenoxy)propyl)-7-(3,5-dimethyl-1H-pyrazol-4-yl)-1-oxo-4,5-dihydro-1H-[1,4]diazepino[1,2-a]indol-2(3H)-yl)-1-methyl-1H-indole-6-carboxylic acid]
- GI50 [1, 3]: 4700 nM
- Ki [2]: < 1 nM

Structure (SMILES): Cc1cc(OCCCc2c3n(c4c(-c5c(C)nn(C)c5C)c(Cl)ccc24)[C@H](C)CN(c2cn(C)c4ccc(-c5cn6c(n5)CCC6)cc24)C3=O)cc(C)c1Cl [Example 419, (R)-7-Chloro-10-(3-(4-chloro-3,5-dimethylphenoxy)propyl)-2-(5-(6,7-dihydro-5H-pyrrolo[1,2-a]imidazol-2-yl)-1-methyl-1H-indol-3-yl)-4-methyl-6-(1,3,5-trimethyl-1H-pyrazol-4-yl)-3,4-dihydropyrazino[1,2-a]indol-1(2H)-one]
- GI50 [1, 4]: 1100 nM
- Ki [2]: 2.3 nM

Structure (SMILES): Cc1cc(OCCCc2c3n(c4c(-c5c(C)nn(C)c5C)c(Cl)ccc24)[C@H](C)CN(c2cc(C(=O)O)cc4c2cc(C(F)(F)F)n4C)C3=O)cc(C)c1Cl [Example 211, 4-[(4R)-7-chloro-10-[3-(4-chloro-3,5-dimethyl-phenoxy)propyl]-4-methyl-1-oxo-6-(1,3,5-trimethylpyrazol-4-yl)-3,4-dihydropyrazino[1,2-a]indol-2-yl]-1-methyl-2-(trifluoromethyl)indole-6-carboxylic acid]
- GI50 [1, 3]: 11000 nM
- Ki [2]: 3.1 nM

Structure (SMILES): Cc1cc(OCCCc2c3n(c4c(-c5c(C)nn(C)c5C)c(Cl)ccc24)[C@H](C)CN(c2cccc4nc(C(=O)O)ccc24)C3=O)cc(C)c1Cl [Example 184, (R)-5-(7-chloro-10-(3-(4-chloro-3,5-dimethylphenoxy)propyl)-4-methyl-1-oxo-6-(1,3,5-trimethyl-1H-pyrazol-4-yl)-3,4-dihydropyrazino[1,2-a]indol-2(1H)-yl)quinoline-2-carboxylic acid]
- GI50 [1, 3]: 770 nM
- Ki [2]: < 1 nM

Structure (SMILES): CCn1cc(N2C[C@@H](C)n3c(c(CCCOc4cc(C)c(Cl)c(C)c4)c4ccc(Cl)c(-c5c(C)nn(C)c5C)c43)C2=O)c2cc(C(=O)O)ccc21 [Example 164, (R)-3-(7-Chloro-10-(3-(4-chloro-3,5-dimethylphenoxy)propyl)-4-methyl-1-oxo-6-(1,3,5-trimethyl-1H-pyrazol-4-yl)-3,4-dihydropyrazino[1,2-a]indol-2(1H)-yl)-1-ethyl-1H-indole-5-carboxylic acid]
- GI50 [1, 3]: 920 nM
- Ki [2]: 1.7 nM

Structure (SMILES): Cc1cc(OCCCc2c3n(c4c(-c5c(C)nn(C)c5C)c(Cl)ccc24)[C@H](C)CN(c2cc(OCCN(C)C)cc4cc(C(=O)O)n(C)c24)C3=O)cc(C)c1Cl [Example 455, (R)-7-(7-Chloro-10-(3-(4-chloro-3,5-dimethylphenoxy)propyl)-4-methyl-1-oxo-6-(1,3,5-trimethyl-1H-pyrazol-4-yl)-3,4-dihydropyrazino[1,2-a]indol-2(1H)-yl)-5-(2-(dimethylamino)ethoxy)-1-methyl-1H-indole-2-carboxylic acid]
- GI50 [1, 3]: 220 nM
- Ki [2]: < 1 nM

Structure (SMILES): Cc1cc(OCCCc2c3n(c4c(-c5c(C)nn(C)c5C)c(Cl)ccc24)[C@H](C)CN(c2cccc4cc(C(=O)O)cnc24)C3=O)cc(C)c1Cl [Example 105, (R)-8-(7-Chloro-10-(3-(4-chloro-3,5-dimethylphenoxy)propyl)-4-methyl-1-oxo-6-(1,3,5-trimethyl-1H-pyrazol-4-yl)-3,4-dihydropyrazino[1,2-a]indol-2(1H)-yl)quinoline-3-carboxylic acid]
- GI50 [1, 3]: 270 nM
- Ki [2]: < 1 nM

Structure (SMILES): Cc1cc(OCCCc2c3n(c4c(-c5c(C)ncnc5C)c(Cl)ccc24)[C@H](C)CN(c2cccc4cc(C(=O)O)n(C)c24)C3=O)cc(C)c1Cl [Example 238, 7-[(4R)-7-chloro-10-[3-(4-chloro-3,5-dimethyl-phenoxy)propyl]-6-(4,6-dimethylpyrimidin-5-yl)-4-methyl-1-oxo-3,4-dihydropyrazino[1,2-a]indol-2-yl]-1-methyl-indole-2-carboxylic acid]
- GI50 [1, 3]: 340 nM
- Ki [2]: < 1 nM

Structure (SMILES): COCCn1c(C(=O)O)cc2cc(C)cc(N3C[C@@H](C)n4c(c(CCCOc5cc(C)c(Cl)c(C)c5)c5ccc(Cl)c(-c6c(C)nn(C)c6C)c54)C3=O)c21 [Example 470, (R)-7-(7-Chloro-10-(3-(4-chloro-3,5-dimethylphenoxy)propyl)-4-methyl-1-oxo-6-(1,3,5-trimethyl-1H-pyrazol-4-yl)-3,4-dihydropyrazino[1,2-a]indol-2(1H)-yl)-1-(2-methoxyethyl)-5-methyl-1H-indole-2-carboxylic acid]
- GI50 [1, 3]: < 200 nM
- Ki [2]: < 1 nM

Structure (SMILES): Cc1cc(OCCCc2c3n(c4c(-c5c(C)nn(C)c5C)c(Cl)ccc24)[C@H](C)CN(c2ccc(OCc4ccccc4)c4c2cc(C(=O)O)n4C)C3=O)cc(C)c1Cl [Example 299, (P, R)-7-(benzyloxy)-4-(7-chloro-10-(3-(4-chloro-3,5-dimethylphenoxy)propyl)-4-methyl-1-oxo-6-(1,3,5-trimethyl-1H-pyrazol-4-yl)-3,4-dihydropyrazino[1,2-a]indol-2(1H)-yl)-1-methyl-1H-indole-2-carboxylic acid]
- GI50 [1, 4]: 2300 nM
- Ki [2]: 2 nM
